Results as given in US8232377B2, “Method for high-level secretory production of protein” (priority 2006, dated 2012).

What was measured:
[1] = system: O. minuta YY3P4omH strain; assay: Antibody production by PMT4-inactivated, HAC1-introduced O. minuta using PMT inhibitor (1c), TR-FRET quantification; format: cell-based, Ogataea minuta; conditions: stock solution 10 mM; 27° C., 3 days (FIG. 18)
Protocol: (§1) 20 mM Tris-HCl buffer (pH 7.2) comprising 12 μl of 0.97 μg/ml LANCE Eu-W1024 labeled anti-human IgG (PerkinElmer), 8.3 ug/ml of biotin-conjugated mouse anti-human IgG (BD Bioscience), 16.7 ug/ml Surelight APC streptavidin (PerkinElmer), and 10% of Block Ace (Dainippon Pharmaceutical) was applied to a 96-well half area plate (Corning), and 2 μl of a sample solution prepared by adequately diluting the culture solution prepared in (2) above with 20 mM Tris-HCl buffer (pH 7.2) containing 10% of Block Ace was introduced therein, followed by agitation. The sample solution was subjected to the reaction at room temperature in the dark for 1 hour, and fluorescence was then assayed using EnVision (PerkinElmer). The amount of aggregate antibodies produced was determined based on the value at 665 nm/615 nm. Antibodies produced in animal cells (CHO) were used as standard samples. […]
(§2) A platinum loopful of antibody-producing strains with an insertionally inactivated PMT gene and with the HAC1 gene introduced therein prepared in Example 25 (1) was inoculated into 5 ml of B2YP4G medium, cultured at 27° C. for 1 day, and diluted with B2YP4G medium to adjust OD600 to 10. […] Culture was conducted at 27° C. for an additional 3 days, OD600 was measured every 24 hours, and PMT inhibitors (1c) were added in amounts of 0.00032 μM, 0.0016 μM, 0.008 μM, and 0.04 μM, respectively, as the OD600 value increased by 1. […]

[2] = system: S. cerevisiae T2K01, T2K02, T2K03 and T2K04 strains; assay: Antibody productivity of transformed S. cerevisiae with PMT inhibitor added, sandwich ELISA; format: cell-based, Saccharomyces cerevisiae; conditions: 10 μM PMT inhibitor in YPAD medium, 30° C., 3 days (FIG. 8B)
Protocol: The S. cerevisiae T2K01, S. cerevisiae T2K02, S. cerevisiae T2K03, and S. cerevisiae T2K04 strains prepared in Example 14 were cultured using ST medium at 30° C. for 3 days. The culture solution was inoculated into YPAD medium to result in a final concentration of 5% therein, and culture was conducted at 30° C. for 3 days. A culture supernatant was prepared from the culture solution, and the resultant was designated as a sample containing antibodies secreted and produced by yeast. The secreted and produced antibodies were subjected to quantitative assay via sandwich ELISA. TRAIL receptor proteins that were antigens of the anti-TRAIL receptor antibodies were adsorbed on a 96-well plate, a yeast sample was added, and detection was carried out using a peroxidase-labeled human IgG specific Fc antibody (Peroxidase-labeled affinity purified antibody to human IgG (Fc) (KPL)) and the ABTS peroxidase substrate (KPL). Antibodies produced in animal cells (NS0) were used as standard samples.
The S. cerevisiae T2K01, S. cerevisiae T2K02, S. cerevisiae T2K03, and S. cerevisiae T2K04 strains prepared in Example 14 were cultured using ST medium at 30° C. for 3 days. […]

[3] = system: O. minuta YY3P2omH strain; assay: Antibody production by PMT2-inactivated, HAC1-introduced O. minuta using PMT inhibitor (1c), TR-FRET quantification; format: cell-based, Ogataea minuta; conditions: stock solution 2.5 mM; 27° C., 3 days (FIG. 18)
Protocol: as §1, §2

[4] = system: O. minuta AK3RH and O. minuta AK3AHy; assay: Antibody production by transformed O. minuta with PMT inhibitor added, Western analysis of culture supernatant; format: cell-based, Ogataea minuta; conditions: Western analysis (FIG. 6)
Protocol: O. minuta AK3RH and O. minuta AK3AHy were cultured in BYPG medium (1% yeast extract (Difco), 2% polypeptone (Difco), 0.5% glycerol, and 0.1M phosphate buffer (pH 6.0)) for 2 days, and these strain were cultured in BYPM media [1% yeast extract (Difco), 2% polypeptone (Difco), 1.5% methanol, and 0.1M phosphate buffer (pH 6.0)] to which 0 μM, 1 μM, 5 μM, 10 μM, 20 μM, and 50 μM PMT inhibitors (the rhodanine-3-acetic acid derivative: 5-[[3,4-(1-phenylmethoxy)phenyl]methylene]-4-oxo-2-thioxo-3-thiazolidineacetic acid (compound (1c) described in Bioorganic & Medicinal Chemistry Letters, Vol. 14, p. 3975, 2004)) had been added at 28° C. for 2 days. A culture supernatant was prepared from the culture solution and subjected to SDS-PAGE. Thereafter, the separated protein was blotted on a PVDF membrane, and Western analysis was carried out using a labeled anti-human antibody (anti-human Fc antibody). […] The adequate concentration of the PMT inhibitor to be added was 5 μM. In such a case, the amount of antibody secretion and the percentage of aggregate formation were increased.

[5] = system: O. minuta AA2omH, AA2 ppH, AA2scH and AA2Hy strains; assay: Antibody production by O. minuta strains with HAC1 gene introduced using PMT inhibitor (1c), TR-FRET quantification; format: cell-based, Ogataea minuta; conditions: 2 μM, plus 0.04 μM as OD600 increased by 1; 27° C., 3 days; HAC1 strains compared with control AA2Hy strain (FIG. 11)
Protocol: as §1
A platinum loopful of the O. minuta AA2omH strain, the O. minuta AA2 ppH strain, the O. minuta AA2scH strain, and the O. minuta AA2Hy strain was inoculated into 5 ml of B2YP4G medium, cultured at 27° C. for 1 day, and then diluted with B2YP4G medium to adjust OD600 at 10. […] A culture supernatant was prepared from the culture solution, and the amount of antibody production was measured by the method described in Example 21 (3).

O. minuta YY1 strains = assay: Evaluation of PMT inhibitor (5a): antibody production by O. minuta YY1, Western analysis and TR-FRET quantification; format: cell-based, Ogataea minuta; conditions: 1 μm, plus 0.02 μM as OD600 increased by 1, 27° C.
Protocol: 20 mM Tris-HCl buffer (pH 7.2) comprising 12 μl of 0.97 μg/ml LANCE Eu-W1024 labeled anti-human IgG (PerkinElmer), 8.3 ug/ml of biotin-conjugated mouse anti-human IgG (BD Bioscience), 16.7 ug/ml Surelight APC streptavidin (PerkinElmer), and 10% of Block Ace (Dainippon Pharmaceutical) was applied to a 96-well half area plate (Corning), and 2 μl of a sample solution prepared by adequately diluting the culture solution prepared in (2) above with 20 mM Tris-HCl buffer (pH 7.2) containing 10% of Block Ace was introduced therein, followed by agitation. The sample solution was subjected to the reaction at room temperature in the dark for 1 hour, and fluorescence was then assayed using EnVision (PerkinElmer). The amount of aggregate antibodies produced was determined based on the value at 665 nm/615 nm. Antibodies produced in animal cells (CHO) were used as standard samples. […] However, similar effects of production could be expected even via introduction of the HAC1 gene derived from a species different from a host.
A platinum loopful of the O. minuta YY1 strains into which antibody genes had been introduced was inoculated into 5 ml of B2YP4G medium, cultured at 27° C. for 1 day, and diluted with B2YP4G medium to adjust OD600 at 10. […]

Compound | PMT inhibitor amount added as the OD600 value increased by 1 giving the highest antibody productivity [1] | synergistic effects of coexpression of the activated HAC1 gene and the RRBP1 gene on antibody production [2] | PMT inhibitor amount added as the OD600 value increased by 1 giving the highest antibody productivity [3] | adequate concentration of the PMT inhibitor to be added ([4]; 0, 1, 5, 10, 20 and 50 μM tested in BYPM medium, 28° C., 2 days) [µM] | amount of antibody secretion ([4]; PMT inhibitor at 5 μM) | percentage of aggregate formation ([4]; PMT inhibitor at 5 μM) | effects of accelerating antibody secretion [5] | effects compared with PMT inhibitor (1c) (O. minuta YY1 strains; 3 days) | productivity of antibody aggregates (O. minuta YY1 strains; 3 days (FIG. 19, FIG. 20))
5-[[3,4-(1-phenylmethoxy)phenyl]methylene]-4-oxo-2-thioxo-3-thiazolidineacetic acid [PMT inhibitor (1c)] | approximately 0.04 μM | further enhanced | approximately 0.008 μM | 5 | increased | increased | more significant effects of accelerating antibody secretion | – | –
CC(Oc1cc(/C=C2\SC(=S)N(CC(=O)O)C2=O)ccc1OCCc1ccccc1)c1ccccc1 (stereo not drawn) [PMT inhibitor (5a), {(5Z)-4-oxo-5-[3-(1-phenylethoxy)-4-(2-phenylethoxy)benzylidene]-2-thioxo-1,3-thiazolidin-3-yl}acetic acid] | – | – | – | – | – | – | – | effects equivalent to those of the PMT inhibitor (1c) | tend to increase
